# Experimental data reported in patent publication US20260256873A1, “MODIFIED CAVEOLIN-1 PEPTIDE FORMULATIONS AND METHODS OF MANUFACTURING AND USE THEREOF” (LUNG THERAPEUTICS, INC., priority 2022, published 2026).
# Several values for one entry are separate records, joined by “and”; a condition that tells them apart may be missing. Equal values may be shown once. Read-outs that look alike come from different tables or passages of the source. Where a SMILES comes first, the peptide text is derived from it. [ ]: non-standard residue; d: D form.
# Legend:
# [1] = Plasma pharmacokinetics of the APi2355 SAIB formulation over 42 days after single-dose subcutaneous administration; assay type: in vivo, male Sprague Dawley rats; details: for Tmax: sc
# Procedure: (§1) The plasma pharmacokinetics of the Cav-1 peptide (APi2355) SAIB formulation prepared according to Example 1 (5.66% w/w APi2355 75.47% w/w SAIB and 18.87% w/w NMP to provide 7% w/w APi2355 to 93% w/w SAIB) were assessed over 42 days after a single-dose subcutaneous administration to male Sprague Dawley rats. The rats (n=6) received one of three batches of the APi2355 SAIB formulations prepared according to Example 1 at a dose of 2.0 mg/kg of APi2355 in 0.033 mL/kg (concentration 60.0 mg/mL). Control group of rats (n=2) received an injection of vehicle formulation containing no APi2355.
# Animals were assigned to groups by a stratified randomization scheme designed to achieve similar group mean body weights. The animals were acclimated to their designated housing for at least 5 days before the day dosing. All formulations were administered in a single dose by dorsal subcutaneous (SC) injection on day 0. […] Whole blood samples (40-50 μl, by tail nick) were collected from all animals in control group at pre-dose and at 1 h and 1 day post-treatment. Blood was collected into K2EDTA tubes. Tubes were mixed gently after blood collection, chilled and centrifuged at 3000 rpm and 4° C., within 30 minutes upon collection. The resultant plasma was separated, transferred to uniquely labeled polypropylene tubes and frozen at −20° C. Plasma and tissue samples were analyzed for concentration of APi2355 using a qualified analytical procedure for LC/MS/MS.
# (§2) Terminal whole blood samples (maximal volume by cardiac stick) and tissues were collected from all animals on day 42 post-treatment. Tissues included tissues from heart, liver, kidney, lung, and injection site skin patches. Additionally, lungs were processed for bronchial lavage samples. Tissue samples were analyzed for APi2355 by LC/MS/MS.
# [2] = APi2355 concentrations in various tissues at 42 days post treatment (LC/MS/MS); assay type: in vivo; details: male, Sprague Dawley, rat, sc, 2 mg/kg, mean of 6 rats, single SC 2.0 mg/kg in SAIB formulation
# Procedure: as §1
# Animals were assigned to groups by a stratified randomization scheme designed to achieve similar group mean body weights. The animals were acclimated to their designated housing for at least 5 days before the day dosing. All formulations were administered in a single dose by dorsal subcutaneous (SC) injection on day 0. Whole blood samples (40-50 μl) were collected from all animals in APi2355 treated group at pre-dose and 1 h, 2 h, 4 h, 8 h, 1 day, 2 days, 4 days, 7 days, 10 days, 14 days, 21 days, 29 days, and 35 days post-treatment. Whole blood samples (40-50 μl, by tail nick) were collected from all animals in control group at pre-dose and at 1 h and 1 day post-treatment. Blood was collected into K2EDTA tubes. Tubes were mixed gently after blood collection, chilled and centrifuged at 3000 rpm and 4° C., within 30 minutes upon collection. The resultant plasma was separated, transferred to uniquely labeled polypropylene tubes and frozen at −20° C. Plasma and tissue samples were analyzed for concentration of APi2355 using a qualified analytical procedure for LC/MS/MS.
# as §2
# [3] = individual rats, single SC 2.0 mg/kg APi2355 in SAIB formulation, 2 mg/kg
# [4] = rat plasma, single SC 2.0 mg/kg in SAIB formulation
smiles,measurement,setting,value
"CC(=O)N[C@H](C)C(=O)N[C@H](C)C(=O)N[C@@H](CCC(=O)O)C(=O)NCC(=O)N[C@@H](CCCCN)C(=O)N[C@@H](C)C(=O)N[C@@H](CO)C(=O)N[C@@H](Cc1ccccc1)C(=O)N[C@H](C(=O)N[C@H](C(=O)N[C@@H](Cc1ccccc1)C(=O)N[C@H](C(=O)N[C@H](C(=O)N[C@H](C(=O)N[C@@H](CCCCN)C(=O)NCC(=O)N[C@@H](CO)C(=O)N[C@H](C)C(=O)N[C@H](C)C(N)=O)[C@@H](C)O)C(C)C)[C@@H](C)O)[C@@H](C)O)[C@@H](C)O [APi2355, Ac-aaEGKASFTTFTVTKGSaa-NH2] (Ac-[dA][dA]EGKASFTTFTVTKGS[dA][dA]-NH2)","AUC0-14, Mean","[1]; dose to day 14, rat plasma, single SC 2.0 mg/kg in SAIB formulation",126 ng·days/mL
same,"AUC0-22, Mean","[1]; dose to day 22, rat plasma, single SC 2.0 mg/kg in SAIB formulation",146 ng·days/mL
same,"AUCinf, Mean","[1]; extrapolated to infinity (AUClast + Clast/λz), rat plasma, single SC 2.0 mg/kg in SAIB formulation",183 ng·days/mL
same,CL/F,"[1]; in vivo, apparent plasma clearance, rat, single SC 2.0 mg/kg in SAIB formulation",6.94 mL/min/kg
same,Vd/F,"[1]; in vivo, apparent volume of distribution, terminal phase, rat, single SC 2.0 mg/kg in SAIB formulation, read-out: Vz/F, Mean",133 L/kg
same,AUC(0-t),"[1]; in vivo, log/linear trapezoidal method, rat plasma, single SC 2.0 mg/kg in SAIB formulation, read-out: AUClast, Mean (converted)",3940 ng·h/mL
same,Cmax,"[1]; in vivo, rat plasma, single SC 2.0 mg/kg APi2355 in SAIB formulation",477 ng/mL
same,half-life,"[1]; in vivo, rat plasma, single SC 2.0 mg/kg in SAIB formulation, read-out: Half-life (terminal), Mean (converted)",9.24 days
same,MRT last,"[1]; in vivo, rat plasma, single SC 2.0 mg/kg in SAIB formulation, read-out: MRTlast, Mean (converted)",188 h
same,APi2355 plasma concentration 1 hr post-treatment,[1]; [3],202.00 ng/mL and 232.90 ng/mL and 109.02 ng/mL and 101.53 ng/mL and 84.70 ng/mL and 557.93 ng/mL
same,APi2355 plasma concentration 2 hr post-treatment,[1]; [3],884.98 ng/mL and 111.43 ng/mL and 37.62 ng/mL and 317.55 ng/mL and 539.82 ng/mL and 497.89 ng/mL
same,APi2355 plasma concentration 4 hr post-treatment,[1]; [3],26.95 ng/mL and 102.25 ng/mL and 328.27 ng/mL and 164.91 ng/mL and 97.42 ng/mL and 52.01 ng/mL
same,APi2355 plasma concentration 8 hr post-treatment,[1]; [3],23.90 ng/mL and 54.20 ng/mL and 80.69 ng/mL and 75.60 ng/mL and 47.06 ng/mL and 39.24 ng/mL
same,APi2355 plasma concentration 1 day post-treatment,[1]; [3],10.32 ng/mL and 11.86 ng/mL and 20.55 ng/mL and 12.72 ng/mL and 19.85 ng/mL and 25.11 ng/mL
same,APi2355 plasma concentration 2 day post-treatment,[1]; [3],6.13 ng/mL and 3.87 ng/mL and 2.54 ng/mL and 8.72 ng/mL and 14.40 ng/mL and 6.90 ng/mL
same,APi2355 plasma concentration 4 day post-treatment,[1]; [3],4.65 ng/mL and 3.40 ng/mL and 1.29 ng/mL and 2.17 ng/mL and 1.84 ng/mL and 1.41 ng/mL
same,APi2355 plasma concentration 7 day post-treatment,[1]; [3],15.91 ng/mL and 5.07 ng/mL and 2.40 ng/mL and 2.14 ng/mL and 5.18 ng/mL and 1.44 ng/mL
same,APi2355 plasma concentration 10 day post-treatment,[1]; [3],2.09 ng/mL and 2.04 ng/mL and 10.43 ng/mL and 5.54 ng/mL and 2.38 ng/mL and 1.58 ng/mL
same,APi2355 plasma concentration 14 day post-treatment,[1]; [3],1.66 ng/mL and 1.24 ng/mL and 7.00 ng/mL and 1.83 ng/mL and 1.64 ng/mL and 3.04 ng/mL
same,APi2355 plasma concentration 22 day post-treatment,[1]; [3],1.68 ng/mL and 1.87 ng/mL and 2.49 ng/mL and 5.68 ng/mL and 1.98 ng/mL and 1.93 ng/mL
same,APi2355 plasma concentration 29 day post-treatment,[1]; [3],0.98 ng/mL and 0.50 ng/mL and 0.85 ng/mL and 0.65 ng/mL and 0.58 ng/mL and 0.16 ng/mL
same,APi2355 plasma concentration 35 day post-treatment,[1]; [3],0.81 ng/mL and 1.13 ng/mL and 0.78 ng/mL and 0.10 ng/mL and 0.72 ng/mL and 4.20 ng/mL
same,APi2355 plasma concentration 42 day post-treatment,[1]; [3],0.88 ng/mL and 0.29 ng/mL and 0.15 ng/mL and 0.00 ng/mL (2×) and 0.04 ng/mL
same,"Clast, Mean","[1]; last measurable concentration, rat plasma, single SC 2.0 mg/kg in SAIB formulation",0.942 ng/mL
same,level at 1 h,"[1]; male, Sprague Dawley, rat, plasma, mean of 6 rats, single SC 2.0 mg/kg APi2355 in SAIB formulation, read-out: APi2355 plasma concentration 1 hr post-treatment, Mean",215 ng/mL
same,level at 2 h,"[1]; male, Sprague Dawley, rat, plasma, mean of 6 rats, single SC 2.0 mg/kg APi2355 in SAIB formulation, read-out: APi2355 plasma concentration 2 hr post-treatment, Mean",398 ng/mL
same,level at 4 h,"[1]; male, Sprague Dawley, rat, plasma, mean of 6 rats, single SC 2.0 mg/kg APi2355 in SAIB formulation, read-out: APi2355 plasma concentration 4 hr post-treatment, Mean",129 ng/mL
same,level at 8 h,"[1]; male, Sprague Dawley, rat, plasma, mean of 6 rats, single SC 2.0 mg/kg APi2355 in SAIB formulation, read-out: APi2355 plasma concentration 8 hr post-treatment, Mean",53.5 ng/mL
same,level at 24 h,"[1]; male, Sprague Dawley, rat, plasma, mean of 6 rats, single SC 2.0 mg/kg APi2355 in SAIB formulation, read-out: APi2355 plasma concentration 1 day post-treatment, Mean",16.7 ng/mL
same,level at 48 h,"[1]; male, Sprague Dawley, rat, plasma, mean of 6 rats, single SC 2.0 mg/kg APi2355 in SAIB formulation, read-out: APi2355 plasma concentration 2 day post-treatment, Mean",7.09 ng/mL
same,level at 96 h,"[1]; male, Sprague Dawley, rat, plasma, mean of 6 rats, single SC 2.0 mg/kg APi2355 in SAIB formulation, read-out: APi2355 plasma concentration 4 day post-treatment, Mean",2.46 ng/mL
same,level at 168 h,"[1]; male, Sprague Dawley, rat, plasma, mean of 6 rats, single SC 2.0 mg/kg APi2355 in SAIB formulation, read-out: APi2355 plasma concentration 7 day post-treatment, Mean",5.36 ng/mL
same,level at 240 h,"[1]; male, Sprague Dawley, rat, plasma, mean of 6 rats, single SC 2.0 mg/kg APi2355 in SAIB formulation, read-out: APi2355 plasma concentration 10 day post-treatment, Mean",4.01 ng/mL
same,level at 336 h,"[1]; male, Sprague Dawley, rat, plasma, mean of 6 rats, single SC 2.0 mg/kg APi2355 in SAIB formulation, read-out: APi2355 plasma concentration 14 day post-treatment, Mean",2.73 ng/mL
same,level at 528 h,"[1]; male, Sprague Dawley, rat, plasma, mean of 6 rats, single SC 2.0 mg/kg APi2355 in SAIB formulation, read-out: APi2355 plasma concentration 22 day post-treatment, Mean",2.61 ng/mL
same,level at 696 h,"[1]; male, Sprague Dawley, rat, plasma, mean of 6 rats, single SC 2.0 mg/kg APi2355 in SAIB formulation, read-out: APi2355 plasma concentration 29 day post-treatment, Mean",0.62 ng/mL
same,level at 840 h,"[1]; male, Sprague Dawley, rat, plasma, mean of 6 rats, single SC 2.0 mg/kg APi2355 in SAIB formulation, read-out: APi2355 plasma concentration 35 day post-treatment, Mean",1.29 ng/mL
same,level at 1008 h,"[1]; male, Sprague Dawley, rat, plasma, mean of 6 rats, single SC 2.0 mg/kg APi2355 in SAIB formulation, read-out: APi2355 plasma concentration 42 day post-treatment, Mean",0.23 ng/mL
same,APi2355 detectable in the plasma following administration,"[1]; number of rats, single SC 2.0 mg/kg in SAIB formulation",4 out of 6
same,"% AUC Extrap, Mean",[1]; [4],9.00%
same,extrapolated AUC of AUCinf,[1]; [4],< 20%
same,fraction of the total exposure of APi2355 occurring in the first 3 weeks after SC administration,[1]; [4],Approximately ⅔
same,Tmax,"[1]; rat, in vivo, 2 mg/kg, rat plasma, single SC 2.0 mg/kg APi2355 in SAIB formulation, read-out: Tmax, Mean (converted)",1.99 h
same,Tmax,"[1]; rat, in vivo, 2 mg/kg, rat plasma, single SC 2.0 mg/kg APi2355 in SAIB formulation, read-out: Tmax, median (converted)",1.99 h
same,"Tlast, Mean","[1]; time of last quantifiable concentration, rat plasma, single SC 2.0 mg/kg in SAIB formulation",39.7 days
same,level at 1008 h,"[2]; bronchoalveolar lavage fluid (BALF), read-out: Concentration in BALF (bronchoalveolar lavage fluid), Mean",0.99 ng/mL
same,tissue level at time at 1008 h,"[2]; heart, read-out: Concentration in Heart, Mean",12.1 ng/g
same,tissue level at time at 1008 h,"[2]; injection site skin, injection site skin, read-out: Concentration in Skin, Mean",4.95 ng/g
same,tissue level at time at 1008 h,"[2]; kidney, read-out: Concentration in Kidney, Mean",53.2 ng/g
same,tissue level at time at 1008 h,"[2]; liver, read-out: Concentration in Liver, Mean",1.23 ng/g
same,tissue level at time at 1008 h,"[2]; lung, read-out: Concentration in Lung, Mean",68 ng/g
